From paper PMC11394972 (International Journal of Molecular Sciences, 2024)

Test system: MazF-mt3(Δ16–22)
Format: biochemical, Mycobacterium tuberculosis
Conditions: FAM-labeled 13-nt RNA substrate; Figure 4B, Figure S9

MazE-mt3 α3–α4: peptide corresponding to the last two helices (α3-α4, Leu46-Trp82) of MazE-mt3; cocrystallized with MazF-mt3 (PDB 8ZWS) (LTGQIDRALESIHGTDEAEALAVANAYRVLETMDDEW)
inhibitory effect against the loop-truncated MazF-mt3 enzyme compared with the full-length antitoxin: strong inhibitory effect comparable to that of the full-length MazE-mt3
